Measured values as given in patent US8952024B2, “Herbicidal pyrimidone derivatives” (E I du Pont de Nemours and Company, priority 2009, dated 2015).
Read-outs that look alike come from different tables or passages of the source.

Key:
Assay type in all cases: in vivo
[1] = test system: barnyardgrass (Echinochloa crus-galli); experiment: Test A pre-/postemergence plant response; details: Echinochloa crus-galli, 240 h; for pest or weed control at 125 g/ha: 125 g ai/ha; for pest or weed control at 500 g/ha: 500 g ai/ha
Method in brief: (§1)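 Injury scores (0, no effect; 100, complete control) come from visual comparison with untreated controls roughly ten days post-treatment. Test chemicals in a surfactant-containing non-phytotoxic solvent were applied as a directed soil spray preemergence and to one- to two-leaf seedlings postemergence.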

corn (Zea mays) = experiment: Test A pre-/postemergence plant response; details: Zea mays, 240 h; for Corn plant response rating (crop injury, 0 = no effect, 100 = complete kill) at 500 g/ha: 500 g ai/ha
Method in brief: as §1

[2] = test system: giant foxtail (Setaria faberii); experiment: Test A pre-/postemergence plant response; details: Setaria faberi, 240 h; for pest or weed control at 125 g/ha: 125 g ai/ha; for pest or weed control at 500 g/ha: 500 g ai/ha
Method in brief: as §1

[3] = test system: large crabgrass (Digitaria sanguinalis); experiment: Test A pre-/postemergence plant response; details: Digitaria sanguinalis, 240 h; for pest or weed control at 125 g/ha: 125 g ai/ha; for pest or weed control at 500 g/ha: 500 g ai/ha
Method in brief: as §1

[4] = test system: velvetleaf (Abutilon theophrasti); experiment: Test A pre-/postemergence plant response; details: Abutilon theophrasti, 240 h; for pest or weed control at 125 g/ha: 125 g ai/ha; for pest or weed control at 500 g/ha: 500 g ai/ha
Method in brief: as §1

[5] = test system: wheat (Triticum aestivum); experiment: Test A pre-/postemergence plant response; details: Triticum aestivum, 240 h; for plant injury at 125 g/ha: 125 g ai/ha; for plant injury at 500 g/ha: 500 g ai/ha
Method in brief: as §1

[6] = test system: nightshade (eastern black nightshade, Solanum ptycanthum); experiment: Test B pre-/postemergence plant response; details: Preemergence
Method in brief: (§2)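 Plants treated either at seeding (loam/sand soil) or postemergence at 2 to 18 cm height, using a surfactant-containing non-phytotoxic solvent formulation. Evaluation was visual after 13 to 15 days, 0 to 100 scale relative to controls.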

[7] = test system: sunflower (common oilseed sunflower, Helianthus annuus); experiment: Test B pre-/postemergence plant response; details: Preemergence
Method in brief: as §2

[8] = test system: canarygrass (Phalaris minor); experiment: Test B postemergence plant response; details: Phalaris minor, post-emergence, 360 h, Postemergence
Method in brief: (§3)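 Plants grown in peat/vermiculite medium were sprayed postemergence at 2–18 cm height (1- to 4-leaf stage). After 13–15 days in the greenhouse, response was rated visually against untreated controls on a 0–100 scale (0 no effect, 100 complete control).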

[9] = test system: chickweed (Stellaria media); experiment: Test B postemergence plant response; details: Stellaria media, post-emergence, 360 h, Postemergence
Method in brief: as §3

[10] = test system: windgrass (Apera spica-venti); experiment: Test B postemergence plant response; details: Apera spica-venti, post-emergence, 360 h, Postemergence
Method in brief: as §3

[11] = test system: winter barley (Hordeum vulgare); experiment: Test B postemergence plant response; details: Hordeum vulgare, post-emergence, Postemergence, read-out: Plant response rating, Barley
Method in brief: as §3

[12] = 31 g ai/ha, scale 0 to 100 (0 no effect, 100 complete control)
[13] = 62 g ai/ha, scale 0 to 100, 0 no effect, 100 complete control
[14] = 125 g ai/ha, visual rating after 13 to 15 days, scale 0 (no effect) to 100 (complete control)

O=C1CCCC(O)=C1C(=O)c1cnc(-c2ccccc2)n(-c2ccccc2)c1=O [Compound 2, 5-[(2-hydroxy-6-oxo-1-cyclohexen-1-yl)carbonyl]-2,3-diphenyl-4(3H)-pyrimidinone]
pest or weed control at 125 g/ha ([1]; post-emergence, Postemergence, visual injury, 0 to 100 scale (0 no effect, 100 complete control), approx. ten days, read-out: Barnyardgrass plant response rating): 100% | pest or weed control at 500 g/ha ([1]; post-emergence, Postemergence, 0 to 100 scale, 0 = no effect, 100 = complete control, approx. ten days, read-out: Plant response rating, Barnyardgrass): 100% | pest or weed control at 125 g/ha ([1]; pre-emergence, Preemergence, 0 to 100 scale, 0 = no effect, 100 = complete control, read-out: Plant response rating, Barnyardgrass): 10% | pest or weed control at 500 g/ha ([1]; pre-emergence, Preemergence, visual injury, 0 to 100 scale (0 no effect, 100 complete control), approx. ten days, read-out: Plant response rating, Barnyardgrass): 70% | plant injury at 125 g/ha (corn (Zea mays); post-emergence, Postemergence, 125 g ai/ha, visual injury, 0 to 100 scale (0 no effect, 100 complete control), approx. ten days, read-out: Corn plant response rating): 30% | Corn plant response rating (crop injury, 0 = no effect, 100 = complete kill) at 500 g/ha (corn (Zea mays); post-emergence, Postemergence, 0 to 100 scale, 0 = no effect, 100 = complete control, approx. ten days): 90% | Corn plant response rating (crop injury, 0 = no effect, 100 = complete kill) at 125 g/ha (corn (Zea mays); pre-emergence, Preemergence, 125 g ai/ha, 0 to 100 scale, 0 = no effect, 100 = complete control): 0% | Corn plant response rating (crop injury, 0 = no effect, 100 = complete kill) at 500 g/ha (corn (Zea mays); pre-emergence, Preemergence, visual injury, 0 to 100 scale (0 no effect, 100 complete control), approx. ten days): 0% | pest or weed control at 125 g/ha ([2]; post-emergence, Postemergence, visual injury, 0 to 100 scale (0 no effect, 100 complete control), approx. ten days, read-out: Foxtail, Giant plant response rating): 90% | pest or weed control at 500 g/ha ([2]; post-emergence, Postemergence, 0 to 100 scale, 0 = no effect, 100 = complete control, approx. ten days, read-out: Plant response rating, Foxtail, Giant): 100% | pest or weed control at 125 g/ha ([2]; pre-emergence, Preemergence, 0 to 100 scale, 0 = no effect, 100 = complete control, read-out: Plant response rating, Foxtail, Giant): 50% | pest or weed control at 500 g/ha ([2]; pre-emergence, Preemergence, visual injury, 0 to 100 scale (0 no effect, 100 complete control), approx. ten days, read-out: Plant response rating, Foxtail, Giant): 90% | pest or weed control at 125 g/ha ([3]; post-emergence, Postemergence, visual injury, 0 to 100 scale (0 no effect, 100 complete control), approx. ten days, read-out: Crabgrass, Large plant response rating): 90% | pest or weed control at 500 g/ha ([3]; post-emergence, Postemergence, 0 to 100 scale, 0 = no effect, 100 = complete control, approx. ten days, read-out: Plant response rating, Crabgrass, Large): 100% | pest or weed control at 125 g/ha ([3]; pre-emergence, Preemergence, 0 to 100 scale, 0 = no effect, 100 = complete control, read-out: Plant response rating, Crabgrass, Large): 80% | pest or weed control at 500 g/ha ([3]; pre-emergence, Preemergence, visual injury, 0 to 100 scale (0 no effect, 100 complete control), approx. ten days, read-out: Plant response rating, Crabgrass, Large): 100% | pest or weed control at 125 g/ha ([4]; post-emergence, Postemergence, visual injury, 0 to 100 scale (0 no effect, 100 complete control), approx. ten days, read-out: Velvetleaf plant response rating): 100% | pest or weed control at 500 g/ha ([4]; post-emergence, Postemergence, 0 to 100 scale, 0 = no effect, 100 = complete control, approx. ten days, read-out: Plant response rating, Velvetleaf): 100% | pest or weed control at 125 g/ha ([4]; pre-emergence, Preemergence, 0 to 100 scale, 0 = no effect, 100 = complete control, read-out: Plant response rating, Velvetleaf): 60% | pest or weed control at 500 g/ha ([4]; pre-emergence, Preemergence, visual injury, 0 to 100 scale (0 no effect, 100 complete control), approx. ten days, read-out: Plant response rating, Velvetleaf): 100% | plant injury at 125 g/ha ([5]; post-emergence, Postemergence, visual injury, 0 to 100 scale (0 no effect, 100 complete control), approx. ten days, read-out: Wheat plant response rating): 0% | plant injury at 500 g/ha ([5]; post-emergence, Postemergence, 0 to 100 scale, 0 = no effect, 100 = complete control, approx. ten days, read-out: Plant response rating, Wheat): 20% | plant injury at 125 g/ha ([5]; pre-emergence, Preemergence, 0 to 100 scale, 0 = no effect, 100 = complete control, read-out: Plant response rating, Wheat): 0% | plant injury at 500 g/ha ([5]; pre-emergence, Preemergence, visual injury, 0 to 100 scale (0 no effect, 100 complete control), approx. ten days, read-out: Plant response rating, Wheat): 0% | Plant response rating, Nightshade ([6]; 16 g ai/ha, scale 0 to 100, 0 no effect, 100 complete control): 55 | Plant response rating, Nightshade [6, 12]: 98 | Plant response rating, Nightshade [6, 13]: 100 | Nightshade plant response rating ([6]; 125 g ai/ha, 0 to 100 scale): 100 | Plant response rating, Sunflower [7, 12]: 50 | Plant response rating, Sunflower [7, 13]: 70 | Sunflower plant response rating ([7]; 125 g ai/ha, 0 to 100 scale): 90 | pest or weed control at 16 g/ha ([8]; 16 g ai/ha, 0 to 100 scale, read-out: Plant response rating, Canarygrass): 20% | pest or weed control at 31 g/ha ([8]; 31 g ai/ha, scale 0 to 100 (0 no effect, 100 complete control), read-out: Plant response rating, Canarygrass): 40% | pest or weed control at 62 g/ha ([8]; 62 g ai/ha, scale 0 (no effect) to 100 (complete control), 13 to 15 days, read-out: Plant response rating, Canarygrass): 50% | pest or weed control at 125 g/ha [8, 14]: 80% | pest or weed control at 16 g/ha ([9]; 16 g ai/ha, 0 to 100 scale, read-out: Plant response rating, Chickweed): 70% | pest or weed control at 31 g/ha ([9]; 31 g ai/ha, scale 0 to 100 (0 no effect, 100 complete control), read-out: Plant response rating, Chickweed): 75% | pest or weed control at 62 g/ha ([9]; 62 g ai/ha, scale 0 (no effect) to 100 (complete control), 13 to 15 days, read-out: Plant response rating, Chickweed): 90% | pest or weed control at 125 g/ha [9, 14]: 95% | pest or weed control at 16 g/ha ([10]; 16 g ai/ha, 0 to 100 scale, read-out: Plant response rating, Windgrass): 10% | pest or weed control at 31 g/ha ([10]; 31 g ai/ha, scale 0 to 100 (0 no effect, 100 complete control), read-out: Plant response rating, Windgrass): 10% | pest or weed control at 62 g/ha ([10]; 62 g ai/ha, scale 0 (no effect) to 100 (complete control), 13 to 15 days, read-out: Plant response rating, Windgrass): 15% | pest or weed control at 125 g/ha [10, 14]: 50% | plant injury at 16 g/ha ([11]; 16 g ai/ha, 0 to 100 scale): 0% | plant injury at 31 g/ha [11, 12]: 10% | plant injury at 62 g/ha ([11]; 62 g ai/ha, scale 0 (no effect) to 100 (complete control), 13 to 15 days): 20% | plant injury at 125 g/ha ([11]; 125 g ai/ha, scale 0 to 100 (0 no effect, 100 complete control), 13 to 15 days): 30%
